Measured values taken from patent publication US20240041976A1, “COMPOSITION AND USE” (priority 2020, published 2024).
Like-named read-outs stand apart in the source and are kept apart here. No end group written: not given here.

Assays:
MRSA ATCC 33591 = test: microbe, parasite or virus in culture; assay type: cell-based, Staphylococcus aureus; settings: for MIC: Staphylococcus aureus, 24 h, read-out: MIC, single antimicrobial
Method: (§1) Antimicrobial activity was measured using the AAMP assay (Wiegand et al., 2008, Nat. Protoc., Vol. 3(2), p 163-175).
(§2) Synergy testing was done with a microtiter plate checkerboard assay as previously described (Orhan et al., 2005, J. Clin. Microbiol., Vol. 43(1), p 140-143). Briefly, equal amounts of antimicrobial A were applied on microtiter plate 1 in wells A1-H1 and then diluted two-fold to wells 2-12. Similarly, equal amounts of antimicrobial B were applied on microtiter plate 2 in wells A1-A12 and diluted two-fold in wells B-H. Volumes of 50 μl of antimicrobial A from each well of microtiter plate 1 were transferred into microtiter plate 3, except for wells H1-H12. Similarly, the same volumes were transferred from microtiter plate 2 into plate 3, except for wells A1-A8. A 100 μl volume of 25 times diluted ON bacterial culture of MRSA was transferred into each well of plate 3. A 50 μl volume of pure broth was added into each well in lines H1-H12 and A1-A8 which were used to estimate MIC values of pure substances (blank).
(§3) Antimicrobial activity was measured using the AAMP assay as described in Example 2.
(§4) Synergy testing was performed as in Example 2.

[1] = tested on: S. pseudintermedius MRSP 45; test: microbe, parasite or virus in culture; assay type: cell-based, Staphylococcus pseudintermedius; settings: Staphylococcus pseudintermedius, MRSP45; MRSP 45; 24 h; Table 8; read-out: MIC, single component
Method: as §1, §2, §3, §4

MRSA USA-300 = test: AAMP assay and checkerboard synergy; assay type: cell-based, Staphylococcus aureus; settings: for MIC: Staphylococcus aureus, 24 h, read-out: MIC, single antimicrobial
Method: as §1, §2
(§5) Three-component synergy was assessed by mixing the three components (100 μg of PenG, 50 μg of GarKS and 2.5 μg of MP1) into one well of a microtiter plate, compared with activity of individual antimicrobials on the same plate. The fractional inhibition concentration (FIC) which was used to define synergy was calculated as set forth in Example 1.

MRSA ATCC 33591-lux = test: AAMP assay and checkerboard synergy; assay type: cell-based, Staphylococcus aureus; settings: for MIC: Staphylococcus aureus, 24 h, read-out: MIC, single antimicrobial
Method: as §1, §2, §5

MRSA 43484 = test: AAMP assay and checkerboard synergy; assay type: cell-based, Staphylococcus aureus; settings: MRSA 43484; for MIC: Staphylococcus aureus, 24 h, read-out: MIC, single antimicrobial
Method: as §1, §2, §5

[2] = tested on: three MRSA strains (ATCC33591-lux, USA-300 and MRSA 43484); test: AAMP assay and checkerboard synergy, summary; assay type: cell-based, Staphylococcus aureus; settings: for MIC of the antimicrobial in comb. with GarKS: All three strains; for synergy with GarKS: checkerboard assay
Method: as §2, with “Briefly,” for “Synergy testing was done with a microtiter plate checkerboard assay as previously described (Orhan et al., 2005, J. Clin. Microbiol., Vol. 43(1), p 140-143). Briefly,”, “A 100 μl volume of 25 times diluted ON bacterial culture of MRSA was transferred into each well of plate 3.” left out
Three-component synergy was assessed by mixing the three components (100 μg of PenG, 50 μg of GarKS and 2.5 μg of MP1) into one well of a microtiter plate, compared with activity of individual antimicrobials on the same plate.

S. aureus LMG3255 = test: AAMP assay (MIC), single components and formulation mixture; assay type: cell-based, Staphylococcus aureus; settings: Staphylococcus aureus, LMG3255, 24 h; read-out: MIC, single component
Method: as §1, §5

S. aureus LMG3026 = test: as above; assay type: cell-based, Staphylococcus aureus; settings: Staphylococcus aureus, LMG3026, 24 h; read-out: MIC, single component
Method: as §1, §5

S. aureus LMG3328 = test: as above; assay type: cell-based, Staphylococcus aureus; settings: Staphylococcus aureus, LMG3328, 24 h; read-out: MIC, single component
Method: as §1, §5

S. aureus LMG3242 = test: as above; assay type: cell-based, Staphylococcus aureus; settings: Staphylococcus aureus, LMG3242, 24 h; read-out: MIC, single component
Method: as §1, §5

S. aureus LMG3307 = test: as above; assay type: cell-based, Staphylococcus aureus; settings: Staphylococcus aureus, LMG3307, 24 h; read-out: MIC, single component
Method: as §1, §5

S. aureus LMG3314 = test: as above; assay type: cell-based, Staphylococcus aureus; settings: Staphylococcus aureus, LMG3314, 24 h; read-out: MIC, single component
Method: as §1, §5

S. aureus LMG3265 = test: as above; assay type: cell-based, Staphylococcus aureus; settings: Staphylococcus aureus, LMG3265, 24 h; read-out: MIC, single component
Method: as §1, §5

S. aureus LMG3258 = test: as above; assay type: cell-based, Staphylococcus aureus; settings: Staphylococcus aureus, LMG3258, 24 h; read-out: MIC, single component
Method: as §1, §5

S. aureus LMG3266 = test: as above; assay type: cell-based, Staphylococcus aureus; settings: Staphylococcus aureus, LMG3266, 24 h; read-out: MIC, single component
Method: as §1, §5

S. aureus LMG3263 = test: as above; assay type: cell-based, Staphylococcus aureus; settings: Staphylococcus aureus, LMG3263, 24 h; read-out: MIC, single component
Method: as §1, §5

S. aureus LMG3271 = test: as above; assay type: cell-based, Staphylococcus aureus; settings: Staphylococcus aureus, LMG3271, 24 h; read-out: MIC, single component
Method: as §1, §5

S. aureus LMG3322 = test: as above; assay type: cell-based, Staphylococcus aureus; settings: Staphylococcus aureus, LMG3322, 24 h; read-out: MIC, single component
Method: as §1, §5

S. aureus LMG3264 = test: as above; assay type: cell-based, Staphylococcus aureus; settings: Staphylococcus aureus, LMG3264, 24 h; read-out: MIC, single component
Method: as §1, §5

[3] = tested on: Methicillin-Resistant Staphylococcus aureus; assay type: in vivo, mice; settings: repeat on larger groups
Method: The experiment was performed essentially as set out in Example 2, except that the following regimes as described below, were used.
50-70 μl of cream was applied per wound.
Treatment was daily for 4 days.
The rifampicin/MP1 experiment was repeated on a larger group of mice in each category (8 mice for each of rifampicin, MP1, rifampicin+MP1, 8 mice with APO base cream 30% as used for rifampicin and MP1, 7 mice untreated). Seven mice were also treated with fucidin cream (2% fusidic acid in a cream base) as a positive control.

E. faecium LMGT 3104 = test: microbe, parasite or virus in culture; assay type: cell-based, Enterococcus faecium
Method: as §1, §2, §3, §4

Row | Molecule | MIC of MP1 in comb. with the labelled antimicrobial (MRSA ATCC 33591) [µg/mL] | MIC of the labelled antimicrobial in comb. with MP1 (MRSA ATCC 33591) [µg/mL] | MIC (MRSA ATCC 33591) [µg/mL] | MIC [1] [µg/mL] | MIC of the antimicrobial in comb. with GarKS (MRSA USA-300; MRSA USA-300) [µg/mL] | MIC of the antimicrobial in comb. with GarKS (MRSA ATCC 33591-lux; MRSA ATCC 33591-lux) | MIC of the antimicrobial in comb. with GarKS (MRSA 43484) [µg/mL] | MIC (MRSA 43484) [µg/mL] | MIC of the antimicrobial in comb. with GarKS [2] [µg/mL] | synergy with GarKS [2] | MIC (S. aureus LMG3255) [µg/mL] | MIC (S. aureus LMG3026) [µg/mL] | MIC (S. aureus LMG3328) [µg/mL] | MIC (S. aureus LMG3242) [µg/mL] | MIC (S. aureus LMG3307) [µg/mL] | MIC (S. aureus LMG3314) [µg/mL] | MIC (S. aureus LMG3265) [µg/mL] | MIC (S. aureus LMG3258) [µg/mL] | MIC (S. aureus LMG3266) [µg/mL] | MIC (S. aureus LMG3263) [µg/mL] | other results
1 | O=C(N[C@H](CO)[C@H](O)c1ccc([N+](=O)[O-])cc1)C(Cl)Cl [Cam, Chloramphenicol] | 0.08 | 8 | 62 | 62 | 64 | 32/32 μg/ml | 64 | 16 | 32 to 64 | no synergy or only additive effects | 16 | 8 | 8 | 8 | 8 | 8 | 32 | 16 | 32 | 32 | MIC (MRSA USA-300; MRSA): 125 µg/mL; MIC (MRSA ATCC 33591-lux): 125 µg/mL; MIC ([2]; Staphylococcus aureus, 24 h, read-out: MIC, single antimicrobial, All three strains): 16 to 125 µg/mL; MIC (S. aureus LMG3271): 16 µg/mL; MIC (S. aureus LMG3322): 8 µg/mL; MIC (S. aureus LMG3264): 16 µg/mL
2 | CO[C@H]1/C=C/O[C@@]2(C)Oc3c(C)c(O)c4c(O)c(c(/C=N/N5CCN(C)CC5)c(O)c4c3C2=O)NC(=O)/C(C)=C\C=C\[C@H](C)[C@H](O)[C@@H](C)[C@@H](O)[C@@H](C)[C@H](OC(C)=O)[C@@H]1C [Rifampicin] | 0.08 | 1.5 | > 100 |  |  |  |  |  |  |  |  |  |  |  |  |  |  |  |  |  | duration of the antimicrobial effect [3]: less than 48 hours
3 | [H]/N=C(/N)N[C@H]1[C@H](O)[C@@H](O)[C@H](O[C@@H]2O[C@@H](C)[C@](O)(C=O)[C@H]2O[C@@H]2O[C@@H](CO)[C@H](O)[C@@H](O)[C@@H]2NC)[C@@H](N/C(N)=N\[H])[C@@H]1O [Str, Streptomycin] |  |  |  | > 2500 | 32 | 32 µg/mL | 32 | 62 | 32 | moderate synergy with GarKS only against two MRSA out of three | 125 | 31 | 62 | 250 | 62 | 62 | 31 | 62 | > 125 | 31 | MIC (MRSA USA-300; MRSA USA-300): 62 µg/mL; MIC, single antimicrobial (MRSA ATCC 33591-lux; MRSA ATCC 33591-lux): >2500 µg/mL; MIC (MRSA ATCC 33591-lux; MRSA ATCC 33591-lux): > 2500 µg/mL; MIC (S. aureus LMG3271): 125 µg/mL; MIC (S. aureus LMG3322): 62 µg/mL; MIC (S. aureus LMG3264): > 250 µg/mL
4 | MKFKFNPTGTIVKKLTQYEIAWFKNKHGYYPWEIPRC [EntK1] |  |  |  |  |  |  |  |  |  |  |  |  |  |  |  |  |  |  |  |  | MIC of MP1 in comb. with the labelled antimicrobial (E. faecium LMGT 3104): 0.02 µg/mL; MIC of the labelled antimicrobial in comb. with MP1 (E. faecium LMGT 3104): 0.4 µg/mL; MIC, single antimicrobial (E. faecium LMGT 3104): >250 µg/mL
